Experimental data taken from ChEMBL document CHEMBL4428084, “Discovery and Optimization of N-(4-(3-Aminophenyl)thiazol-2-yl)acetamide as a Novel Scaffold Active against Sensitive and Resistant Cancer Cells” (J Med Chem, 2016).

Assays:
[1] = Cytotoxicity against vemurafenib-resistant human A375 R5C3 cells assessed as cell viability at 5 uM after 48 hrs by trypan blue exclusion assay relative to control; format: functional; conditions: A-375, 48 h, read-out: Activity
[2] = Cytotoxicity against vemurafenib-resistant human A375 RIV cells assessed as cell viability at 5 uM after 48 hrs by trypan blue exclusion assay relative to control; format: functional; conditions: A-375, 48 h, read-out: Activity
A-375 [3] = assay: Cytotoxicity against vemurafenib-sensitive human A375 cells assessed as cell viability at 5 uM after 48 hrs by trypan blue exclusion assay relative to control; format: functional; conditions: A-375, 48 h, read-out: Activity
K562 [4] = assay: Cytotoxicity against imatinib-sensitive human K562 cells assessed as cell viability at 1 uM after 48 hrs by trypan blue exclusion assay relative to control; conditions: K562, 48 h, read-out: Activity
K562 [5] = assay: Cytotoxicity against imatinib-resistant human K562 cells assessed as cell viability at 1 uM after 48 hrs by trypan blue exclusion assay relative to control; conditions: K562, 48 h, read-out: Activity
[6] = Cytotoxicity against vemurafenib-resistant human A375 R5C3 cells assessed as cell viability at 10 uM after 48 hrs by trypan blue exclusion assay relative to control; format: functional; conditions: A-375, 48 h, read-out: Activity
A-375 [7] = assay: Cytotoxicity against vemurafenib-sensitive human A375 cells assessed as cell viability at 10 uM after 48 hrs by trypan blue exclusion assay relative to control; format: functional; conditions: A-375, 48 h, read-out: Activity
K562 [8] = assay: Cytotoxicity against imatinib-resistant human K562 cells assessed as cell viability at 10 uM after 48 hrs by trypan blue exclusion assay relative to control; format: functional; conditions: K562, 48 h, read-out: Activity
BXPC-3 = assay: Cytotoxicity against gemcitabine-sensitive human BxPC3 cells assessed as cell viability at 10 uM after 48 hrs by trypan blue exclusion assay relative to control; format: functional; conditions: BXPC-3, 48 h, read-out: Activity
MIA PaCa-2 = assay: Cytotoxicity against gemcitabine-resistant human MIAPaCa2 cells assessed as cell viability at 10 uM after 48 hrs by trypan blue exclusion assay relative to control; format: functional; conditions: MIA PaCa-2, 48 h, read-out: Activity
[9] = Cytotoxicity against vemurafenib-resistant human A375 RIV cells assessed as cell viability at 10 uM after 48 hrs by trypan blue exclusion assay relative to control; format: functional; conditions: A-375, 48 h, read-out: Activity
K562 [10] = assay: Cytotoxicity against imatinib-sensitive human K562 cells assessed as cell viability at 10 uM after 48 hrs by trypan blue exclusion assay relative to control; format: functional; conditions: K562, 48 h, read-out: Activity
A-375 [11] = assay: Induction of apoptosis in human A375 cells assessed as cells with active caspase-3 at 1 uM after 12 hrs by flow cytometry (reference value: 4.16%); format: functional

CCCS(=O)(=O)Nc1ccc(F)c(C(=O)c2c[nH]c3ncc(-c4ccc(Cl)cc4)cc23)c1F [VEMURAFENIB]
viability at 5 µM [1]: 101%
viability at 5 µM [2]: 76.7%
viability at 5 µM (A-375 [3]): 44%

Cc1ccc(NC(=O)c2ccc(CN3CCN(C)CC3)cc2)cc1Nc1nccc(-c2cccnc2)n1 [IMATINIB]
viability at 1 µM (K562 [4]): 9.7%
viability at 1 µM (K562 [5]): 85.5%

CC(=O)Nc1nc(-c2cccc(NC(=O)c3ccc4ccccc4c3)c2)cs1
viability at 10 µM [6]: 63.8%
viability at 10 µM (A-375 [7]): 18.3%
viability at 10 µM (K562 [8]): 89.7%
viability at 10 µM (BXPC-3): 1.5%
viability at 10 µM (MIA PaCa-2): 7%
viability at 10 µM [9]: 30%
viability at 10 µM (K562 [10]): 53.9%

CN[C@@H]1C[C@H]2O[C@@](C)([C@@H]1OC)n1c3ccccc3c3c4c(c5c6ccccc6n2c5c31)C(=O)NC4 [STAUROSPORINE]
Activity (A-375 [11]): 46.95%
